Source: paper PMC11905336, “Pyrrole‐Tethered Bisbenzoxazole Derivatives: Apoptosis‐Inducing Agents Targeting Breast Cancer Cells” (Chemical Biology & Drug Design, 2025)
Read-outs that look alike come from different tables or passages of the source.

Legend:
HDFa cell lines = experiment: Cytotoxicity on healthy dermal fibroblasts (MTT / xCELLigence real-time cell analysis); assay type: cell-based; conditions: Homo sapiens
Description: The cytotoxicity of these derivatives was also assessed in dermal fibroblast cells using xCELLigence analysis as detailed in the Supporting Information.
(§1) The human dermal fibroblast (HDFa) and human breast cancer cells (MCF‐7) were obtained from the American Type Culture Collection (ATCC; Manassas, VA, USA). Cells were cultured in RPMI medium (MCF‐7) and DMEM medium (HDFa) was supplemented with 10% FBS, 1% penicillin–streptomycin, 1% amphotericin, and 2.5% L‐glutamine at 37°C in a 5% CO2 incubator.
xCELLigence Real‐Time Cell Analysis. The xCELLigence system (Real‐Time Cell Analyzer (RTCA) Dual Plate (DP) (Roche Diagnostics GmbH, Penzberg)) was used for real‐time monitoring of cell viability without the need for labeling. A total of 1 × 10^4 HDFa cells were seeded into each well of the E‐plate, and the cell proliferation curve was monitored for 24 h. […] The Cell Index (CI) value was automatically measured every hour for each well using RTCA Software (version 1.2.1) (Yetkin et al. [2021]; Yıldırım et al. [2022]).

MCF‐7 cell lines = experiment: MTT assay, cytotoxicity on MCF-7 cells; assay type: cell-based, human; conditions: Homo sapiens, MTT
Description: The cytotoxic effects of PTB derivatives on MCF‐7 breast cancer cells were evaluated using the MTT assay at various concentrations (100 nM, 1 μM, 10 μM, 50 μM, and 100 μM).
as §1
MTT Method. The MTT method is used to detect and quantify living organisms cultured with the method colorimetrically. This method relies on intact mitochondria cleaving the tetrazolium ring of the MTT dye. The MTT substance is absorbed and reduced to a colorful, water‐insoluble formazan by a mitochondria‐dependent reaction. Cell viability is measured based on the MTT reduction property, and the density of dye obtained from MTT analysis indicates the number of viable cells. In this study, cell viability was assessed using the MTT (0.5 mg/mL) solution that was added to each well. […] After adding properties to cultures, they were kept at 37°C for 24 h and overnight. Then, at 48 and 72 h after applying the molecules, 10 μL of MTT was added to each well and incubated under similar conditions for 4 h. Absorbance spectrophotometry was performed at a wavelength of 570 nm using the IC50 = [(control absorbents‐sample absorbents)/control absorbents] × 100 calculation method (Khorsandi et al. [2017]).

[1] = 24 h, values greater than 100 not calculated, read-out: IC50 (μM) for HDFa cell lines, 24 h
[2] = 72 h, values greater than 100 not calculated, read-out: IC50 (μM) for HDFa cell lines, 72 h
[3] = read-out: IC50 (μM) for HDFa cell lines, 48 h, values greater than 100 not calculated
[4] = MCF7, read-out: IC50 (μM) for MCF‐7 cell lines, 48 h
[5] = MCF7, 24 h, read-out: IC50 (μM) for MCF‐7 cell lines, 24 h
[6] = MCF7, 72 h, read-out: IC50 (μM) for MCF‐7 cell lines, 72 h

Row | Structure (SMILES) | IC50 (HDFa cell lines; [1]) | IC50 (HDFa cell lines; [2]) | IC50 (HDFa cell lines; [3]) | IC50 (MCF‐7 cell lines; [4]) | IC50 (MCF‐7 cell lines; [5]) | IC50 (MCF‐7 cell lines; [6])
1 | Cc1ccc2nc(-c3ccc(-c4nc5cc(Cl)ccc5o4)[nH]3)oc2c1 [Compound B19, 5‐Chloro‐2‐(5‐(6‐Methylbenzo[d]Oxazol‐2‐Yl)‐1H‐Pyrrol‐2‐Yl)benzo[d]Oxazole] | 97.3 ± 1.34 µM | 99.82 ± 0.89 µM | 97.3 ± 1.2 µM | 2.97 ± 1.12 µM | 2.83 ± 0.87 µM | 3.42 ± 1.12 µM
2 | Cc1ccc2oc(-c3ccc(-c4nc5ccc(C)cc5o4)[nH]3)nc2c1 [Compound B11, 6‐Methyl‐2‐(5‐(5‐Methylbenzo[d]Oxazol‐2‐Yl)‐1H‐Pyrrol‐2‐Yl)benzo[d]Oxazole] | 95.3 ± 1.65 µM | 99.4 ± 1.23 µM | 97.4 ± 1.47 µM | 3.49 ± 0.68 µM | 4.55 ± 0.09 µM | 2.44 ± 1.19 µM
3 | Clc1ccc2oc(-c3ccc(-c4nc5ccccc5o4)[nH]3)nc2c1 [Compound B9, 2‐(5‐(Benzo[d]Oxazol‐2‐Yl)‐1H‐Pyrrol‐2‐Yl)‐5‐Chlorobenzo[d]Oxazole] | 95.4 ± 1.29 µM | 101 ± 1.38 µM | 97.5 ± 1.99 µM | 3.23 ± 0.63 µM | 3.84 ± 1.12 µM | 2.77 ± 1.23 µM
4 | COC(=O)c1ccc2nc(-c3ccc(-c4nc5cc(Cl)ccc5o4)[nH]3)oc2c1 [Compound B20, Methyl 2‐(5‐(5‐Chlorobenzo[d]Oxazol‐2‐Yl)‐1H‐Pyrrol‐2‐Yl)benzo[d]Oxazole‐6‐Carboxylate] | 95.4 ± 1.94 µM | ≥ 100 µM | 97.3 ± 1.43 µM | 3.25 ± 0.97 µM | 2.97 ± 1.13 µM | 3.07 ± 2.96 µM
5 | Cc1ccc2oc(-c3ccc(-c4nc5cc(C)ccc5o4)[nH]3)nc2c1 [Compound B2, 2,5‐Bis(5‐Methylbenzo[d]Oxazol‐2‐Yl)‐1H‐Pyrrole] | 96.3 ± 1.03 µM | 99.3 ± 1.03 µM | 94.3 ± 1.56 µM | 4.5 ± 0.23 µM | 4.6 ± 2.2 µM | 2.06 ± 1.67 µM
6 | COc1ccc2oc(-c3ccc(-c4nc5cc(Cl)ccc5o4)[nH]3)nc2c1 [Compound B17, 5‐Chloro‐2‐(5‐(5‐Methoxybenzo[d]Oxazol‐2‐Yl)‐1H‐Pyrrol‐2‐Yl)benzo[d]Oxazole] | 98.3 ± 1.57 µM | 99 ± 1 µM | 99 ± 1.96 µM | 3.44 ± 1.12 µM | 3.7 ± 1.12 µM | 3.03 ± 0.76 µM
7 | Clc1ccc2oc(-c3ccc(-c4nc5cc(Cl)ccc5o4)[nH]3)nc2c1 [Compound B5, 2,5‐Bis(5‐Chlorobenzo[d]Oxazol‐2‐Yl)‐1H‐Pyrrole] | 95.3 ± 1.92 µM | ≥ 100 µM | 97.5 ± 2.93 µM | 2.69 ± 2.01 µM | 3.73 ± 1.05 µM | 3.28 ± 1.32 µM
8 | COc1ccc2oc(-c3ccc(-c4nc5cc(C)ccc5o4)[nH]3)nc2c1 [Compound B12, 5‐Methoxy‐2‐(5‐(5‐Methylbenzo[d]Oxazol‐2‐Yl)‐1H‐Pyrrol‐2‐Yl)benzo[d]Oxazole] | ≥ 100 µM | ≥ 100 µM | ≥ 100 µM | 3.49 ± 0.46 µM | 3.88 ± 0.23 µM | 3.11 ± 0.87 µM
9 | c1ccc2oc(-c3ccc(-c4nc5ccccc5o4)[nH]3)nc2c1 [Compound B1, 2,5‐Bis(Benzo[d]Oxazol‐2‐Yl)‐1H‐Pyrrole] | 89.4 ± 1.23 µM | ≥ 100 µM | 89.93 ± 0.43 µM | 2.96 ± 1.02 µM | 3.89 ± 1.15 µM | 3.13 ± 1.12 µM
10 | COc1ccc2oc(-c3ccc(-c4nc5ccc(C)cc5o4)[nH]3)nc2c1 [Compound B15, 5‐Methoxy‐2‐(5‐(6‐Methylbenzo[d]Oxazol‐2‐Yl)‐1H‐Pyrrol‐2‐Yl)benzo[d]Oxazole] | ≥ 100 µM | ≥ 100 µM | ≥ 100 µM | 8.09 ± 2.06 µM | 2.49 ± 1.64 µM | 2.53 ± 1.56 µM
11 | Cc1ccc2oc(-c3ccc(-c4nc5cc(Cl)ccc5o4)[nH]3)nc2c1 [Compound B13, 5‐Chloro‐2‐(5‐(5‐Methylbenzo[d]Oxazol‐2‐Yl)‐1H‐Pyrrol‐2‐Yl)benzo[d]Oxazole] | ≥ 100 µM | ≥ 100 µM | ≥ 100 µM | 3.6 ± 0.56 µM | 3.43 ± 1.56 µM | 3.28 ± 1.36 µM
12 | COc1ccc2oc(-c3ccc(-c4nc5cc(OC)ccc5o4)[nH]3)nc2c1 [Compound B4, 2,5‐Bis(5‐Methoxybenzo[d]Oxazol‐2‐Yl)‐1H‐Pyrrole] | 97.3 ± 1.34 µM | ≥ 100 µM | 99.23 ± 0.32 µM | 4.19 ± 1.86 µM | 4.56 ± 1.56 µM | 3.11 ± 0.56 µM
